We go through eight molecules from publication PMC7801053, “Diarylalkanoids as Potent Tyrosinase Inhibitors from the Stems of Semecarpus caudata” (Evidence-based Complementary and Alternative Medicine : eCAM, 2021).

Structures are written as SMILES.

The target in test [1] is Tyrosinase (EC 1.14.18.1) from mushroom. As to the kind of experiment: Tyrosinase inhibitory assay (L-DOPA substrate, absorbance at 475 nm). As to conditions: read-out: IC50 (tyrosinase inhibitory activity); mushroom tyrosinase 15 U/mL, L-DOPA 1.5 mM, phosphate buffer pH 6.8, preincubated 30 min, n = 3.
Procedure: Optical values were measured on a Shimadzu UV-1800 spectrophotometer (Shimadzu Pte., Ltd., Singapore). […] Tyrosinase (EC 1.14.18.1) from mushroom (3933 U·mL^−1) and L-dihydroxyphenylalanine (L-DOPA) were obtained from Sigma-Aldrich (Sigma-Aldrich Pte., Ltd., Singapore). Other chemicals were of the highest grade available.
All pure compounds were dissolved in DMSO and tested at concentrations ranging from 0.01 to 100 μM. Assay mixtures in 0.1 M phosphate buffer pH 6.8 were prepared immediately before use, consisting of 100 μL of tyrosinase solution (15 U/mL) and 1900 μL of test solution. These mixtures were preincubated at room temperature for 30 min, followed by addition of 1000 μL of L-DOPA 1.5 mM in pH 6.8 phosphate buffer and incubated at room temperature for 7 min. The absorbances (A) at 475 nm were acquired on Shimadzu UV-1800 spectrophotometer. The inhibitory percentage (I%) was calculated according to the formula: I% = ((Acontrol − Asample)/Acontrol) × 100%. Data were represented as means ± standard error (n = 3). The IC50 values were determined by using GraphPad Prism software with multivariate nonlinear regression and R^2 > 0.9.
Another test deals with tyrosinase. As to conditions: read-out: tyrosinase inhibitory constant (Ki); ref Choi et al. [25]; cited from earlier work.

A word on the IC50: it is the concentration that gives 50% inhibition. For `O=C(/C=C/C=C/c1ccc(O)cc1O)c1ccc(O)cc1O` [Compound 1, 2E,4E-1,5-bis(2,4-dihydroxyphenyl)penta-2,4-dien-1-one], the IC50 in test [1] is 33 nM. Same read-out and setting: for `O=C(/C=C/C=C/C=C/c1ccc(O)cc1O)c1ccc(O)cc1O` [Compound 2, 2E,4E,6E-1,7-bis(2,4-dihydroxyphenyl)hepta-2,4,6-trien-1-one] the value was 110 nM; for `COC1=CC(=O)C=C(OC)C1=O` [Compound 3, 2,6-dimethoxybenzoquinone], above 100000 nM. In the case of `O=C(O)/C=C/c1ccc(O)cc1` [Compound 4, p-coumaric acid], the IC50 in test [1] was 2350 nM. Turning to `CC(=O)/C=C/c1ccc(O)c(O)c1` [Compound 6, trans-4-(3,4-dihydroxyphenyl)but-3-en-2-one], the IC50 in test [1] is 27000 nM. On the same count and under the same terms, for `COc1cc(/C=C/C(=O)O)ccc1O` [Compound 7, ferulic acid] the value was above 100000 nM.

Consider `O=C(/C=C/c1ccc(O)cc1O)c1ccc(O)cc1O` [Compound 8, 2,4,2′,4′-Tetrahydroxychalcone], for which, in test [1], the half-maximal inhibitory concentration (IC50) turned out to be 16 nM. One may read the Ki as the dissociation constant of the complex between target and ligand, obtained from inhibition or displacement. As to `O=c1[nH]cnc2nc[nH]c12` [Hypoxanthine], the inhibition constant Ki on tyrosinase is above 1 mM.
